Measurements as given in US20230002327A1, “SMALL-MOLECULE REGULATOR OF TLR8” (TSINGHUA UNIVERSITY, priority 2019, published 2023).

Tests used:
[1] = system: R848-induced signaling pathway in human peripheral blood mononuclear cells; test: ELISA of TNF-α in R848-treated human peripheral blood mononuclear cells; type: cell-based; conditions: human peripheral blood mononuclear cells (FIG. 8)
Protocol: (§1) After 48 hours, suspending cells would adhere onto the surface of the 12-well plate, non-adhered cells and the medium were aspirated, and cells were washed with sterile […] buffer (3×1 mL). RPMI medium was added (1 mL/well), and R848 (1 μg/mL) and various concentrations of Compound 24 or Compound 10 (as a negative control) were further added to treat cells. Or, the same amount of peripheral blood mononuclear cells derived from healthy human were used instead of THP-1 cells for subsequent experiments.
(§2) After 24 hours, the supernatant of the medium was collected and stored in a freezer at −80° C. Cells were washed with PBS (3×1 mL), the 12-well plate was placed on ice, and then 400 μL of lysis buffer (containing protease inhibitor) was added to each well, during which the cells were pipetted every five minutes. After 20 minutes, the mixture was transferred to the corresponding 1.5-mL tube and centrifuged at 13.2K rpm and 4° C. for 20 minutes. 350 μL of the supernatant was collected into a new centrifuge tube and frozen at −80° C.
(§3) Cytokines interleukin-1β(IL-1β), interleukin-6 (IL-6) and tumor necrosis factor (TNF-α) were quantified by enzyme-linked immunosorbent assay (ELISA) according to the instructions of the kit provided by the manufacturer.

[2] = system: TLR1/2, TLR2/6, TLR3, TLR4 and TLR5 signaling pathways; test: ELISA of TNF-α in TLR1/2, TLR2/6, TLR3, TLR4 or TLR5 signaling pathways in human PBMC; type: cell-based; conditions: human peripheral blood mononuclear cells (FIG. 4)
[3] = system: R848-induced signaling pathway in THP-1 cells; test: ELISA of inflammatory factors in R848-treated THP-1 cells; type: cell-based, human
Protocol: THP-1 cells treated with 50 ng/mL of PMA were suspended in RPMI medium (containing 10% fetal bovine serum, penicillin (100 U/mL), streptomycin ([…]) and 0.05 mM 2-mercaptoethanol), seeded in a 12-well plate at a density of 1×10^6 cells/well and 1 mL/well, and incubated in a cell incubator (37° C., 5% CO2).
as §1, §2, §3

TLR7 = target: T1, TLR7 (Homo sapiens, UniProt Q9NYK1); test: Inhibition of R848-induced signaling in HEK-Blue hTLR7 cell line (Quanti-Blue); type: cell-based
T1 construct: host or cells: HEK-Blue hTLR7 (HEK293-derived SEAP reporter cells)
T1 sequence (Q9NYK1 27-1049): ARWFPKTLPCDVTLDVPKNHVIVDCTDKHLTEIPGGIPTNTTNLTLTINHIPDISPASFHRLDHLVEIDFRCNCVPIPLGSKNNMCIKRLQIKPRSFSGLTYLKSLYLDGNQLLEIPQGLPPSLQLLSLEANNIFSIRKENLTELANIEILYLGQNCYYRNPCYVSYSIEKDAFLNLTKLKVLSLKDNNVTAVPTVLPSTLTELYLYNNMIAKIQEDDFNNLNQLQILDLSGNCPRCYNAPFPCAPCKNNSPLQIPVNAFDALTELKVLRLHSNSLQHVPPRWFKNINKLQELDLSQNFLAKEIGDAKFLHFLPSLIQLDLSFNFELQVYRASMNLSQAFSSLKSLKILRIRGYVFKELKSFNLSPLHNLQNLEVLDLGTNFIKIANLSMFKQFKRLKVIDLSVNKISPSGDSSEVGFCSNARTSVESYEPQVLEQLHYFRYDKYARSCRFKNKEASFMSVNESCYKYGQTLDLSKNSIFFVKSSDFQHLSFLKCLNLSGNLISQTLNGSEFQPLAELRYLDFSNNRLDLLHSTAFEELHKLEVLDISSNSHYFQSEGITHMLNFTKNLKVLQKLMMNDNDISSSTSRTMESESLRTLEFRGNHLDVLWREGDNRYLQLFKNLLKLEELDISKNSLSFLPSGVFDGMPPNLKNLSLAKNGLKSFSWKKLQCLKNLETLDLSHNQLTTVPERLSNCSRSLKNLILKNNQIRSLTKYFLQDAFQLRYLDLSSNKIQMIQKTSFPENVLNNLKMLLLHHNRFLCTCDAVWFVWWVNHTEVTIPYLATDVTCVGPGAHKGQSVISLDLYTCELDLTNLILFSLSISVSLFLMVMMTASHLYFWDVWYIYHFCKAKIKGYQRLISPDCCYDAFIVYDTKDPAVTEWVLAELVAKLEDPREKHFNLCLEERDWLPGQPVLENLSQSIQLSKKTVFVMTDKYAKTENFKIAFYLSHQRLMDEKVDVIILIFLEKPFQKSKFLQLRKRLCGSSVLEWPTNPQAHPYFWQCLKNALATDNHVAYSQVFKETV
How it was run: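 HEK-Blue hTLR8 or hTLR7 cells in serum-free DMEM were co-treated for 24 h at 37 °C with compound plus 1 μg/mL R848, or 5 μg/mL ssRNA40/LyoVec or ORN06/LyoVec. SEAP in the supernatant was read with Quanti-Blue at OD620. % inhibition was taken relative to ligand-only and untreated cells, and IC50 was fitted.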

Structure (SMILES) | inhibitory effect on inflammatory factor TNF-α [1] | inhibitory effect on TNF-α in TLR1/2, TLR2/6, TLR3, TLR4 and TLR5 signaling pathways [2] | inhibitory effect on inflammatory factor TNF-α ([3]; concentration-dependent (FIG. 5)) | inhibitory effect on inflammatory factor IL-6 ([3]; concentration-dependent (FIG. 6)) | inhibitory effect on inflammatory factor IL-1β ([3]; concentration-dependent (FIG. 7)) | TLR7 (normalized inhibitory effect on R848-induced signaling) (TLR7)
CSc1nnc(CCCO)n1-c1cc(C)c(C)c(C)c1 [Compound 24, 3-(5-(methylthio)-4-(3,4,5-trimethylphenyl)-4H-1,2,4-triazole-3-yl)propan-1-ol] | significant inhibitory effect | no inhibitory effect | significant inhibitory effect | significant inhibitory effect | significant inhibitory effect | 
CCOCc1nc(I)c(-c2ccccc2)n1CC(C)(C)O [Compound 53, 1-[2-(ethoxymethyl)-4-iodo-5-phenyl-1H-imidazole-1-yl]-2-methylpropan-2-ol] |  |  |  |  |  | 1.0 ± 0.2
